In this assay the test system is SK-N-SH human neuroblastoma cells. As to the kind of experiment: Serum deprivation/JC-1 mitochondrial membrane potential (MMP) assay. The format is cell-based. The following applies: Homo sapiens; for Emax: SK-N-SH, percent maximal intensity in JC-1 ratio normalized to 10 μM dimebolin, read-out: JC-1 max %; for EC50: SK-N-SH cells, serum deprivation ~18 hours, JC-1 ratio normalized to peak value for 10 μM dimebolin, single curve fit to mean data of n=2-3, read-out: EC50. The method, boiled down: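 Cells were serum-deprived ~18 h in MEM with or without compound (DMSO ≤1%), then stained with JC-1 for 35 min at 37° C. The red/green fluorescence ratio (560/595 vs 485/535 nm) was normalized to the peak response of 10 μM dimebolin. EC50 came from one curve fit to mean data (n=2-3, duplicates).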

Molecules are shown by their SMILES.

24 compounds from US9983218B2, “Indole and indoline derivatives and methods of use thereof” (AbbVie Inc., priority 2008, dated 2018) can be followed below.

As a reminder, the EC50 is the concentration at which the effect is half-maximal. For `Cc1ccc2c(c1)c1c(n2CCc2ccc(C)nn2)C2CCN(CC2)C1` [Example 148, 9-methyl-6-[2-(6-methylpyridazin-3-yl)ethyl]-3,4,5,6-tetrahydro-1H-2,5-ethanoazepino[4,3-b]indole], the Emax was 99% and the half-maximal effective concentration (EC50) worked out at 3.52 µM.
On the same counts, the results for `Cc1ccc2c(c1)c1c(n2CCc2ccccc2F)C2CCN(CC2)C1` [Example 150, 6-[2-(2-fluorophenyl)ethyl]-9-methyl-3,4,5,6-tetrahydro-1H-2,5-ethanoazepino[4,3-b]indole] are 134% and 3.6 µM.
`Cc1ccc2c(c1)c1c(n2CCc2ccc(Cl)cc2)C2CCN(CC2)C1` [Example 151, 6-[2-(4-chlorophenyl)ethyl]-9-methyl-3,4,5,6-tetrahydro-1H-2,5-ethanoazepino[4,3-b]indole]: the Emax came out at 121% and the EC50 was determined as 5.38 µM.
Consider `Cc1ccc2c(c1)c1c(n2CCc2cccc(C(F)(F)F)c2)C2CCN(CC2)C1` [Example 152, 9-methyl-6-{2-[3-(trifluoromethyl)phenyl]ethyl}-3,4,5,6-tetrahydro-1H-2,5-ethanoazepino[4,3-b]indole], for which the Emax was found to be 156% and the EC50 turned out to be 3.86 µM.
As for `CCOC(=O)Cn1c2c(c3cc(C)ccc31)CN1CCC2CC1` [Example 154, ethyl (9-methyl-1,3,4,5-tetrahydro-6H-2,5-ethanoazepino[4,3-b]indol-6-yl)acetate], the Emax was 31% and the EC50 turned out to be 30 µM.
Turning to `Cc1ccc2c(c1)c1c(n2CC(=O)Nc2ccc(Cl)cc2)C2CCN(CC2)C1` [Example 155, N-(4-chlorophenyl)-2-(9-methyl-1,3,4,5-tetrahydro-6H-2,5-ethanoazepino[4,3-b]indol-6-yl)acetamide], the Emax stood at 63% and the EC50 was 7.53 µM.
With `Cc1ccc(/C=C/n2c3c(c4cc(F)ccc42)CN2CCC3CC2)cn1` [Example 162, 9-fluoro-6-[(E)-2-(6-methylpyridin-3-yl)vinyl]-3,4,5,6-tetrahydro-1H-2,5-ethanoazepino[4,3-b]indole], the Emax turned out to be 205% and the concentration for a half-maximal effect (EC50) was determined as 17 µM.
As to `Fc1ccc(CCn2c3c(c4cc(F)ccc42)CN2CCC3CC2)cc1` [Example 163, 9-fluoro-6-[2-(4-fluorophenyl)ethyl]-3,4,5,6-tetrahydro-1H-2,5-ethanoazepino[4,3-b]indole], the Emax worked out at 140% and the EC50 amounted to 4.03 µM.
On to `Fc1ccc2c(c1)c1c(n2Cc2ccc(Cl)nc2)C2CCN(CC2)C1` [Example 164, 6-[(6-chloropyridin-3-yl)methyl]-9-fluoro-3,4,5,6-tetrahydro-1H-2,5-ethanoazepino[4,3-b]indole], for which the Emax was determined as 197% and the half-maximal effective concentration (EC50) is 4.95 µM.
Take `Fc1ccc2c(c1)c1c(n2Cc2coc(-c3ccccc3)n2)C2CCN(CC2)C1` [Example 173, 9-fluoro-6-[(2-phenyl-1,3-oxazol-4-yl)methyl]-3,4,5,6-tetrahydro-1H-2,5-ethanoazepino[4,3-b]indole]: the Emax turned out to be 120% and the half-maximal effective concentration (EC50) is 6.15 µM.
On the same counts, the results for `Clc1ccc(CCn2c3c(c4cc(Br)ccc42)CN2CCC3CC2)cc1` [Example 174, 9-bromo-6-[2-(4-chlorophenyl)ethyl]-3,4,5,6-tetrahydro-1H-2,5-ethanoazepino[4,3-b]indole] are 105% and 5.48 µM.
As for `Cc1ccc(CCn2c3c(c4cc(OC(F)(F)F)ccc42)CN2CCC3CC2)cn1` [Example 178, 6-[2-(6-methylpyridin-3-yl)ethyl]-9-(trifluoromethoxy)-3,4,5,6-tetrahydro-1H-2,5-ethanoazepino[4,3-b]indole], the Emax was found to be 192% and the concentration giving a half-maximal response (EC50) was found to be 4.17 µM.
As for `CC1CCC(CCn2c3c(c4cc(OC(F)(F)F)ccc42)CN2CCC3CC2)CN1` (stereo not drawn) [Example 179, 6-[2-(6-methylpiperidin-3-yl)ethyl]-9-(trifluoromethoxy)-3,4,5,6-tetrahydro-1H-2,5-ethanoazepino[4,3-b]indole], the Emax worked out at 116% and the concentration for a half-maximal effect (EC50) came out at 5.69 µM.
For the compound `Cc1ccc(/C=C\n2c3c(c4cc(S(C)(=O)=O)ccc42)CN2CCC3CC2)cn1` [Example 181, 6-[(Z)-2-(6-methylpyridin-3-yl)vinyl]-9-(methylsulfonyl)-3,4,5,6-tetrahydro-1H-2,5-ethanoazepino[4,3-b]indole], the Emax worked out at 103% and the 50% effective concentration (EC50) was 7.89 µM.
On to `Cc1ccc(CCn2c3c(c4cc(S(C)(=O)=O)ccc42)CN2CCC3CC2)cn1` [Example 182, 6-[2-(6-methylpyridin-3-yl)ethyl]-9-(methylsulfonyl)-3,4,5,6-tetrahydro-1H-2,5-ethanoazepino[4,3-b]indole], for which the Emax was 60% and the concentration giving a half-maximal response (EC50) worked out at 9.28 µM.
Consider `Fc1ccc2c(c1)c1c(n2Cc2ccc(C(F)(F)F)nc2)C2CCN(CC2)C1` [Example 183, 9-fluoro-6-{[6-(trifluoromethyl)pyridin-3-yl]methyl}-3,4,5,6-tetrahydro-1H-2,5-ethanoazepino[4,3-b]indole], for which the Emax amounted to 172% and the half-maximal effective concentration (EC50) was determined as 8.97 µM.
On the same counts, the results for `Fc1ccc2c(c1)c1c(n2Cc2ccccn2)C2CCN(CC2)C1` [Example 184, 9-fluoro-6-(pyridin-2-ylmethyl)-3,4,5,6-tetrahydro-1H-2,5-ethanoazepino[4,3-b]indole] are 175% and 10.7 µM.
For the compound `Fc1ccc2c(c1)c1c(n2Cc2cccnc2)C2CCN(CC2)C1` [Example 185, 9-fluoro-6-(pyridin-3-ylmethyl)-3,4,5,6-tetrahydro-1H-2,5-ethanoazepino[4,3-b]indole], the Emax was 184% and the EC50 came to 8.58 µM.
As for `Fc1ccc2c(c1)c1c(n2Cc2ccncc2)C2CCN(CC2)C1` [Example 186, 9-fluoro-6-(pyridin-4-ylmethyl)-3,4,5,6-tetrahydro-1H-2,5-ethanoazepino[4,3-b]indole], the Emax amounted to 93% and the concentration for a half-maximal effect (EC50) was 14.6 µM.
Turning to `c1ccc(Cn2c3c(c4ccccc42)CN2CCC3CC2)nc1` [Example 187, 6-[(pyridin-2-yl)methyl]-3,4,5,6-tetrahydro-1H-2,5-ethanoazepino[4,3-b]indole], the Emax amounted to 110% and the EC50 amounted to 9.37 µM.
`c1cncc(Cn2c3c(c4ccccc42)CN2CCC3CC2)c1` [Example 188, 6-(pyridin-3-ylmethyl)-3,4,5,6-tetrahydro-1H-2,5-ethanoazepino[4,3-b]indole]: the Emax came out at 96% and the concentration giving a half-maximal response (EC50) came to 6.52 µM.
On to `c1ccc2c(c1)c1c(n2Cc2ccncc2)C2CCN(CC2)C1` [Example 189, 6-[(pyridin-4-yl)methyl]-3,4,5,6-tetrahydro-1H-2,5-ethanoazepino[4,3-b]indole], for which the Emax was determined as 107% and the EC50 was 11.3 µM.
For the compound `FC12CC3CC(CN(C3)C1)c1c2c2ccccc2n1Cc1ccc(Cl)nc1` (stereo not drawn) [Example 190, 8-[(6-chloropyridin-3-yl)methyl]-1-fluoro-1,4,5,6,7,8-hexahydro-2H-1,5:3,7-dimethanoazonino[5,4-b]indole], the Emax amounted to 175% and the EC50 was 5.06 µM.
On the same counts, the results for `Fc1ccc2c(c1)c1c(n2Cc2ccnc(F)c2)C2CCN(CC2)C1` [Example 191, 9-fluoro-6-[(2-fluoropyridin-4-yl)methyl]-3,4,5,6-tetrahydro-1H-2,5-ethanoazepino[4,3-b]indole] are 112% and 7.04 µM.
